{"source": "PubChem BioAssay AID1963974", "about": "(Molecular Pharmacology Branch, DTP, NCI, 2024);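 also: spheroids exposed to agents for seven days before reading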;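 as to viability, T/C: percent of vehicle control luminescence where 100% = DMSO treated spheroids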", "test_system": "648629-189-R-J1-PDC spheroids with HUVEC/MSC, viability", "test": "Anticancer human tumor 648629-189-R-J1-PDC patient-derived bladder carcinoma cell line growth inhibition [PI3K]", "details": "for viability, T/C: stronger effect = lower value", "outline": "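Agents were dosed from a top concentration near clinical Cmax (otherwise 10 microM) in half-log decrements, alone or combined with PI3K inhibitors. The spheroids contain tumor cells plus endothelial (HUVEC) and MSC stroma; viability is measured.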", "data": [{"smiles": "Cn1ncnc1[C@H]1c2n[nH]c(=O)c3cc(F)cc(c23)N[C@@H]1c1ccc(F)cc1", "note": "+ COc1c(OCCCN2CCOCC2)ccc2c3n(c(=NC(=O)c4cnc(N)nc4)nc12)CCN3", "values": [{"measurement": "IC50", "setting": "curve of first compound, second compound 0.00316 µM", "value": "> 100", "unit": "nM"}, {"measurement": "IC50", "setting": "curve of first compound, second compound 0.01 µM", "value": "> 100", "unit": "nM"}, {"measurement": "IC50", "setting": "curve of first compound, second compound 0.0316 µM", "value": "> 100", "unit": "nM"}, {"measurement": "IC50", "setting": "curve of first compound, second compound 0.1 µM", "value": 32.2, "unit": "nM"}, {"measurement": "IC50", "setting": "curve of first compound, second compound 0.316 µM", "value": "< 0.316", "unit": "nM"}, {"measurement": "IC50", "setting": "curve of first compound, second compound 1 µM", "value": "< 0.316", "unit": "nM"}, {"measurement": "viability, T/C", "setting": "second compound 0.00316 µM, first compound 0.000316 µM", "value": 100, "unit": "%"}, {"measurement": "viability, T/C", "setting": "second compound 0.00316 µM, first compound 0.001 µM", "value": 92.2, "unit": "%"}, {"measurement": "viability, T/C", "setting": "second compound 0.00316 µM, first compound 0.00316 µM", "value": 106, "unit": "%"}, {"measurement": "viability, T/C", "setting": "second compound 0.00316 µM, first compound 0.01 µM", "value": 88.5, "unit": "%"}, {"measurement": "viability, T/C", "setting": "second compound 0.00316 µM, first compound 0.0316 µM", "value": 83.4, "unit": "%"}, {"measurement": "viability, T/C", "setting": "second compound 0.00316 µM, first compound 0.1 µM", "value": 59.3, "unit": "%"}, {"measurement": "viability, T/C", "setting": "second compound 0.01 µM, first compound 0.000316 µM", "value": 92.3, "unit": "%"}, {"measurement": "viability, T/C", "setting": "second compound 0.01 µM, first compound 0.001 µM", "value": 92.1, "unit": "%"}, {"measurement": "viability, T/C", "setting": "second compound 0.01 µM, first compound 0.00316 µM", "value": 88.7, "unit": "%"}, {"measurement": "viability, T/C", "setting": "second compound 0.01 µM, first compound 0.01 µM", "value": 93.6, "unit": "%"}, {"measurement": "viability, T/C", "setting": "second compound 0.01 µM, first compound 0.0316 µM", "value": 86.5, "unit": "%"}, {"measurement": "viability, T/C", "setting": "second compound 0.01 µM, first compound 0.1 µM", "value": 60.6, "unit": "%"}, {"measurement": "viability, T/C", "setting": "second compound 0.0316 µM, first compound 0.000316 µM", "value": 88.5, "unit": "%"}, {"measurement": "viability, T/C", "setting": "second compound 0.0316 µM, first compound 0.001 µM", "value": 93.3, "unit": "%"}, {"measurement": "viability, T/C", "setting": "second compound 0.0316 µM, first compound 0.00316 µM", "value": 85.4, "unit": "%"}, {"measurement": "viability, T/C", "setting": "second compound 0.0316 µM, first compound 0.01 µM", "value": 73.5, "unit": "%"}, {"measurement": "viability, T/C", "setting": "second compound 0.0316 µM, first compound 0.0316 µM", "value": 65.6, "unit": "%"}, {"measurement": "viability, T/C", "setting": "second compound 0.0316 µM, first compound 0.1 µM", "value": 55.3, "unit": "%"}, {"measurement": "viability, T/C", "setting": "second compound 0.1 µM, first compound 0.000316 µM", "value": 66.7, "unit": "%"}, {"measurement": "viability, T/C", "setting": "second compound 0.1 µM, first compound 0.001 µM", "value": 60.7, "unit": "%"}, {"measurement": "viability, T/C", "setting": "second compound 0.1 µM, first compound 0.00316 µM", "value": 57.5, "unit": "%"}, {"measurement": "viability, T/C", "setting": "second compound 0.1 µM, first compound 0.01 µM", "value": 57.2, "unit": "%"}, {"measurement": "viability, T/C", "setting": "second compound 0.1 µM, first compound 0.0316 µM", "value": 51.8, "unit": "%"}, {"measurement": "viability, T/C", "setting": "second compound 0.1 µM, first compound 0.1 µM", "value": 41, "unit": "%"}, {"measurement": "viability, T/C", "setting": "second compound 0.316 µM, first compound 0.000316 µM", "value": 20.3, "unit": "%"}, {"measurement": "viability, T/C", "setting": "second compound 0.316 µM, first compound 0.001 µM", "value": 19.2, "unit": "%"}, {"measurement": "viability, T/C", "setting": "second compound 0.316 µM, first compound 0.00316 µM", "value": 18.7, "unit": "%"}, {"measurement": "viability, T/C", "setting": "second compound 0.316 µM, first compound 0.01 µM", "value": 16.4, "unit": "%"}, {"measurement": "viability, T/C", "setting": "second compound 0.316 µM, first compound 0.0316 µM", "value": 20, "unit": "%"}, {"measurement": "viability, T/C", "setting": "second compound 0.316 µM, first compound 0.1 µM", "value": 15.4, "unit": "%"}, {"measurement": "viability, T/C", "setting": "second compound 1 µM, first compound 0.000316 µM", "value": 4.4, "unit": "%"}, {"measurement": "viability, T/C", "setting": "second compound 1 µM, first compound 0.001 µM", "value": 3.64, "unit": "%"}, {"measurement": "viability, T/C", "setting": "second compound 1 µM, first compound 0.00316 µM", "value": 3.49, "unit": "%"}, {"measurement": "viability, T/C", "setting": "second compound 1 µM, first compound 0.01 µM", "value": 3.59, "unit": "%"}, {"measurement": "viability, T/C", "setting": "second compound 1 µM, first compound 0.0316 µM", "value": 3.84, "unit": "%"}, {"measurement": "viability, T/C", "setting": "second compound 1 µM, first compound 0.1 µM", "value": 2.43, "unit": "%"}]}, {"smiles": "CC(Nc1ccc2c(c1)OCCn1cc(N3C(=O)OCC3C(F)F)nc1-2)C(N)=O", "note": "(centres undefined)", "values": [{"measurement": "viability, T/C", "setting": "compound 0.00316 µM", "value": "104% [middle of 8 runs]"}, {"measurement": "viability, T/C", "setting": "compound 0.01 µM", "value": "99.7% [middle of 8 runs]"}, {"measurement": "viability, T/C", "setting": "compound 0.0316 µM", "value": "106% [middle of 8 runs]"}, {"measurement": "viability, T/C", "setting": "compound 0.1 µM", "value": "95.2% [middle of 8 runs]"}, {"measurement": "viability, T/C", "setting": "compound 0.316 µM", "value": "81.1% [middle of 8 runs]"}, {"measurement": "viability, T/C", "setting": "compound 1 µM", "value": "73.8% [middle of 8 runs]"}, {"measurement": "IC50", "setting": "compound alone, run of 04/24/2023", "value": "> 1000", "unit": "nM"}]}]}
